Laboratory results as given in patent US8604042B2, “Bi-aryl meta-pyrimidine inhibitors of kinases” (TargeGen, Inc., priority 2005, dated 2013).
Where a name gives a salt, the structure may show the parent alone.

Biological target: T1, recombinant JAK2 (Homo sapiens, UniProt O60674)
T1 construct: purchased Upstate Cell Signaling Solutions
Assay: IC50 value determinations for Jak2 kinase, luminescence-based kinase assay (Kinase-Glo)
Type: biochemical

T1 sequence (O60674 808-1132 limits assumed): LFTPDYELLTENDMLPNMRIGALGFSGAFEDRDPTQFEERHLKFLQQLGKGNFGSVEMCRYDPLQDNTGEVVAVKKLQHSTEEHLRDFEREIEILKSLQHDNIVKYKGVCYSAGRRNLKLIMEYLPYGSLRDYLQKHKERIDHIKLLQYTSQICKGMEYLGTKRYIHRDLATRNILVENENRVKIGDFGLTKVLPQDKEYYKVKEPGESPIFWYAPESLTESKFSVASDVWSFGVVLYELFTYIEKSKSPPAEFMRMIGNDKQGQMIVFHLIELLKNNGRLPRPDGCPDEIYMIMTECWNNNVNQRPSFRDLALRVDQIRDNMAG

IC50 (Table 1) [nM]	IC50 (Table 7, SAR for the P3 region) [nM]	Compound
12.1		COc1cc(Nc2nc(Nc3ccc(N4CCNCC4)nc3)ncc2C)ccc1Cl [N4-(4-Chloro-3-methoxy-phenyl)-5-methyl-N2-(6-piperazin-1-yl-pyridin-3-yl)-pyrimidine-2,4-diamine]
	> 10000	Cc1nc(Nc2ccccc2)nc(Nc2cccc3c2OCO3)c1C [Compound 8]
8.42		Cc1cnc(Nc2ccc(Cn3ccnc3)cc2)nc1Nc1cccc(S(=O)(=O)NC(C)(C)C)c1 [N-tert-Butyl-3-[2-(4-imidazol-1-ylmethyl-phenylamino)-5-methyl-pyrimidin-4-ylamino]-benzenesulfonamide]
4.38		Cc1cnc(Nc2ccc(OC3CCNCC3)cc2)nc1Nc1cccc(C)c1C [5-methyl-N4-(2,3-dimethylphenyl)-N2-(4-(piperidin-4-yloxy)phenyl)pyrimidine-2,4-diamine Hydrochloride]
4330		COc1ccc(Nc2ccnc(Nc3ccc(OCCN4CCCC4)cc3)n2)cc1 [N4-(4-Methoxy-phenyl)-N2-[4-(2-pyrrolidin-1-yl-ethoxy)-phenyl]-pyrimidine-2,4-diamine trifluoroacetate]
15.8		COc1cc(Nc2nc(Nc3cccc(CN4CCNCC4)c3)ncc2C)ccc1Cl [N4-(4-Chloro-3-methoxy-phenyl)-5-methyl-N2-(3-piperazin-1-ylmethyl-phenyl)-pyrimidine-2,4-diamine]
160		Cc1ccc(Nc2nc(Nc3ccc(N4CCN(C)CC4)cc3)ncc2C)cc1S(C)(=O)=O [N4-(3-Methanesulfonyl-4-methyl-phenyl)-5-methyl-N2-[4-(4-methyl-piperazin-1-yl)-phenyl]-pyrimidine-2,4-diamine]
23.4		Cc1cnc(Nc2ccc(OCCN3CCCC3)cc2)nc1Nc1ccc(Cl)c(C(F)(F)F)c1 [N2-(4-(2-(pyrrolidin-1-yl)ethoxy)phenyl)-N4-(4-chloro-3-(trifluoromethyl)phenyl)-5-methylpyrimidine-2,4-diamine]
24.8		Cc1cnc(Nc2ccc(N3CCN(C)CC3)cc2)nc1Nc1cccc(S(=O)(=O)N2CCCCC2)c1 [5-Methyl-N2-[4-(4-methyl-piperazin-1-yl)-phenyl]-N4-[3-(piperidine-1-sulfony)-phenyl]-pyrimidine-2,4-diamine Hydrochloride]
21.9		Cc1cnc(Nc2ccc(Cn3ccnc3C)cc2)nc1Nc1cccc(S(=O)(=O)NC(C)(C)C)c1 [N-tert-Butyl-3-{5-methyl-2-[4-(2-methyl-imidazol-1-ylmethyl)-phenylamino]-pyrimidin-4-ylamino}-benzenesulfonamide]
543		Cc1cnc(Nc2ccc(N3CCN(C)CC3)cc2)nc1Nc1cccc(S(=O)(=O)NC2CCNCC2)c1 [3-{5-Methyl-2-[4-(4-methyl-piperazin-1-yl)-phenylamino]-pyrimidin-4-ylamino}-N-piperidin-4-yl-benzenesulfonamide]
26.2		Cc1cnc(Nc2ccc(N3CCN(C)CC3)cc2)nc1Nc1cccc(C(N)=O)c1C [2-Methyl-3-{5-methyl-2-[4-(4-methyl-piperazin-1-yl)-phenylamino]-pyrimidin-4-ylamino}-benzamide]
35.7		CC(=O)N1CCN(c2ccc(Nc3ncc(C)c(Nc4cccc(S(=O)(=O)NC(C)(C)C)c4)n3)cc2C(F)(F)F)CC1 [3-[(2-{[4-(4-acetylpiperazin-1-yl)-3-(trifluoromethyl)phenyl]amino}-5-methylpyrimidin-4-yl)amino]-N-tert-butylbenzenesulfonamide]
198		Cc1cnc(Nc2ccc(N3CCN(C)CC3)cc2)nc1Nc1cccc(S(=O)(=O)C2CCNCC2)c1 [5-Methyl-N2-[4-(4-methyl-piperazin-1-yl)-phenyl]-N4-[3-(piperidine-4-sulfonyl)-phenyl]-pyrimidine-2,4-diamine]
27.8		CCOC(=O)c1cccc(Nc2nc(Nc3ccc(N4CCN(C)CC4)cc3)ncc2C)c1C [2-Methyl-3-{5-methyl-2-[4-(4-methyl-piperazin-1-yl)-phenylamino]-pyrimidin-4-ylamino)-benzoic acid ethyl ester]
7.96		COc1cc(Nc2nc(Nc3ccc(OCCN4CCCC4)cc3)ncc2C)ccc1Cl [drawing 311, N4-(4-Chloro-3-methoxy-phenyl)-5-methyl-N2-[4-(2-pyrrolidin-1-yl-ethoxy)-phenyl]-pyrimidine-2,4-diamine]
137		COc1cc(Nc2nc(Nc3ccc(OC4CCNCC4)cc3)ncc2C)cc(OC)c1 [N4-(3,5-dimethoxyphenyl)-5-methyl-N2-(4-(piperidin-4-yloxy)phenyl)pyrimidine-2,4-diamine trifluoroacetate]
257		CNC(=O)c1cccc(Nc2nc(Nc3ccc(OCCN4CCCC4)cc3)ncc2C)c1 [N-Methyl-3-{5-methyl-2-[4-(2-pyrrolidin-1-yl-ethoxy)-phenylamino]-pyrimidin-4-ylamino}-benzamide]
16.7		Cc1cnc(Nc2ccc(OCCN3CCCC3)cc2)nc1Nc1ccccc1 [5-Methyl-N4-phenyl-N2-[4-(2-pyrrolidin-1-yl-ethoxy)-phenyl]-pyrimidine-2,4-diamine]

IC50 (Table 1) [nM]	IC50 (Table 7, SAR for the P3 region) [nM]	Compound
1050		Cc1cnc(Nc2ccc(OCCN3CCCC3)cc2)nc1Nc1nccc2ccccc12 [N2-(4-(2-(pyrrolidin-1-yl)ethoxy)phenyl)-N4-(isoquinolin-1-yl)-5-methylpyrimidine-2,4-diamine]
16.4		COC(=O)c1cc(Nc2ncc(C)c(Nc3cccc4c3OCO4)n2)ccc1OCCN1CCCC1 [5-[4-(Benzo[1,3]dioxol-4-ylamino)-5-methyl-pyrimidin-2-ylamino]-2-(2-pyrrolidin-1-yl-ethoxy)-benzoic acid methyl ester]
20.7		Cc1cnc(Nc2ccc(N3CCN(C)CC3)cc2)nc1Nc1cccc(S(=O)(=O)N2CCOCC2)c1 [5-Methyl-N2-[4-(4-methyl-piperazin-1-yl)-phenyl]-N4-[3-(morpholine-4-sulfonyl)-phenyl]-pyrimidine-2,4-diamine]
25.7		Cc1cnc(Nc2ccc(OCCN3CCCC3)cc2)nc1Nc1ccc(Cl)c(Cl)c1 [N4-(3,4-Dichloro-phenyl)-5-methyl-N2-[4-(2-pyrrolidin-1-yl-ethoxy)-phenyl]-pyrimidine-2,4-diamine]
34.3		Cc1cnc(Nc2ccc(-n3ccnc3C)cc2)nc1Nc1cccc(S(=O)(=O)NC(C)(C)C)c1 [N-tert-Butyl-3-{5-methyl-2-[4-(2-methyl-imidazol-1-yl)-phenylamino]-pyrimidin-4-ylamino}-benzenesulfonamide]
316		Cc1cnc(Nc2cccc(S(=O)(=O)N3CCCCC3)c2)nc1Nc1cccc(S(=O)(=O)NC(C)(C)C)c1 [N-tert-Butyl-3-{5-methyl-2-[3-(piperidine-1-sulfonyl)-phenylamino]-pyrimidin-4-ylamino}-benzenesulfonamide]
4.6		Cc1cnc(Nc2ccc(CN3CCNCC3)cc2)nc1Nc1cccc(S(=O)(=O)NC(C)(C)C)c1 [N-tert-butyl-3-[(5-methyl-2-{[4-(piperazin-1-ylmethyl)phenyl]amino}pyrimidin-4-yl)amino]benzenesulfonamide]
96.7		Cc1cnc(Nc2ccc(-c3nnn[nH]3)cc2)nc1Nc1cccc(S(=O)(=O)NC(C)(C)C)c1 [N-tert-Butyl-3-{5-methyl-2-[4-(1H-tetrazol-5-yl)-phenylamino]-pyrimidin-4-ylamino}-benzenesulfonamide]
40.5		Cc1cnc(Nc2cccc(N3CCN(CCO)CC3)c2)nc1Nc1cccc(S(=O)(=O)NC(C)(C)C)c1 [N-tert-Butyl-3-(2-{3-[4-(2-hydroxy-ethyl)-piperazin-1-yl]-phenylamino}-[5-methyl-pyrimidin-4-ylamino]-benzenesulfonamide Hydrochloride]
16.9		Cc1cnc(Nc2ccc(OCCN3CCCC3)cc2)nc1Nc1cccc2c1OCO2 [drawing 333, N4-Benzo[1,3]dioxol-4-yl-5-methyl-N2-[4-(2-pyrrolidin-1-ylethoxy)-phenyl]-pyrimidine-2,4-diamine]
18		Cc1cnc(Nc2cccc(N3CCNCC3)c2)nc1Nc1cccc(S(=O)(=O)NC(C)(C)C)c1 [N-tert-Butyl-3-[5-methyl-2-(3-piperazin-1-yl-phenylamino)-pyrimidin-4-ylamino]-benzenesulfonamide Hydrochloride]
137		CC(=O)Nc1cccc(Nc2nc(Nc3ccc(OC4CCNCC4)cc3)ncc2C)c1 [N-(3-{5-Methyl-2-[4-(piperidin-4-yloxy)-phenylamino]-pyrimidin-4-ylamino}-phenyl)-acetamide]
9.5		Cc1cnc(Nc2ccc(N3CCN(C)CC3)cc2)nc1Nc1cccc(S(=O)(=O)N(C)C)c1 [N,N-Dimethyl-3-{5-methyl-2-[4-(4-methyl-piperazin-1-yl)-phenylamino]-pyrimidin-4-ylamino}-benzenesulfonamide]
13		COc1cc(Nc2nc(Nc3ccc(S(=O)(=O)C4CCNCC4)cc3)ncc2C)ccc1Cl [N4-(4-Chloro-3-methoxy-phenyl)-5-methyl-N2-[4-(piperidine-4-sulfonyl)-phenyl]-pyrimidine-2,4-diamine]
6.15		COc1cc(Nc2nc(Nc3ccc(N4CCNCC4)cc3)ncc2C)ccc1Cl [drawing 348, N4-(4-Chloro-3-methoxy-phenyl)-5-methyl-N2-(4-piperazin-1-yl-phenyl)-pyrimidine-2,4-diamine]
650		Cc1cnc(Nc2cccc(S(=O)(=O)N3CCN(C)CC3)c2)nc1Nc1cccc(S(=O)(=O)NC(C)(C)C)c1 [N-tert-butyl-3-{[5-methyl-2-({3-[(4-methylpiperazin-1-yl)sulfonyl]phenyl}amino)pyrimidin-4-yl]amino}benzenesulfonamide]
7.09		Cc1cnc(Nc2ccc(N3CCN(CCO)CC3)cc2)nc1Nc1cccc(S(=O)(=O)NC(C)(C)C)c1 [N-tert-Butyl-3-(2-{4-[4-(2-hydroxy-ethyl)-piperazin-1-yl]-phenylamino)-[5-methyl-pyrimidin-4-ylamino]-benzenesulfonamide Hydrochloride]
14.8		COc1cc(Nc2nc(Nc3ccc(OCCN4CCCC4)cc3)ncc2C)ccc1F [N4-(4-Fluoro-3-methoxy-phenyl)-5-methyl-N2-[4-(2-pyrrolidin-1-yl-ethoxy)-phenyl]-pyrimidine-2,4-diamine]

Compound	IC50 (Table 1) [nM]	IC50 (Table 7, SAR for the P3 region) [nM]
Cc1cnc(Nc2ccc(OCCN3CCCC3)cc2)nc1Nc1ccc(C#N)c(Cl)c1 [4-(2-(4-(2-(pyrrolidin-1-yl)ethoxy)phenylamino)-5-methylpyrimidin-4-ylamino)-2-chlorobenzonitrile Hydrochloride]	67.5	
